The structures appear in SMILES notation. Values joined by “and” are separate entries in the source; they are usually repeats but may differ in a detail not shown here. Equal values may be shown once.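 Compound exposure: 48 hours, 5 concentrations, 96-well plates. Abbreviation: GI50, concentration required for 50% inhibition of growth. Definition used: TGI = concentration required for complete inhibition of growth.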

Test systems include HCT-15 colon; HL-60(TB) leukemia; K-562 leukemia; HCT-116 colon; OVCAR-5 ovarian; SF-268 CNS; OVCAR-4 ovarian; SF-539 CNS; NCI-H522 lung; EKVX NSCLC.
What all share (assay): NCI-60 cell line screen, 48 h

In the case of `CCN(CC)CCCCC1CCN(CC(=O)N2CC(C)C(=O)Nc3ccccc32)CC1` (centres undefined), the TGI in the assay on HCT-15 colon, with HL-60(TB) leukemia, in the assay with K-562 leukemia, in the assay on HCT-116 colon, with OVCAR-5 ovarian and with SF-268 CNS was > 100 µM each time. Moreover, the TGI in the assay with OVCAR-4 ovarian is > 100 µM.
For `C=CCn1c(C)nc2cc(Nc3nc(Nc4ccc5nc(C)n(CC=C)c5c4)c4ccccc4n3)ccc21`, the GI50 is 1.7 µM in the assay with HL-60(TB) leukemia; 0.751 µM in the assay on OVCAR-5 ovarian; 1.03 µM in the assay on SF-539 CNS; 1.43 µM in the assay with NCI-H522 lung; 1.28 µM in the assay on SF-268 CNS; 0.24 µM with OVCAR-4 ovarian. The TGI with HL-60(TB) leukemia came to 4.13 µM; in the assay with OVCAR-5 ovarian it was 2 µM; with SF-539 CNS, 2.22 µM; in the assay with NCI-H522 lung, 3.27 µM; in the assay on SF-268 CNS, 3.1 µM; in the assay with OVCAR-4 ovarian, 0.583 µM.
Consider `CC(=O)NC1=N/C(=C/c2cc([N+](=O)[O-])ccc2O)CN1C`, for which the TGI with EKVX NSCLC, with HCT-15 colon, with HL-60(TB) leukemia, in the assay with HCT-116 colon, in the assay on OVCAR-5 ovarian and in the assay with SF-539 CNS was > 100 µM each time. For the same compound, the TGI in the assay on OVCAR-4 ovarian was > 100 µM.
For `COc1cc(OC)c(/C=C/c2ccc3ccccc3[n+]2C)c(OC)c1`, the GI50 is 12.8 µM in the assay with HCT-15 colon; 0.363 µM in the assay on HL-60(TB) leukemia; 0.271 µM in the assay on K-562 leukemia; 0.392 µM with HCT-116 colon; 3.09 µM with OVCAR-5 ovarian; 0.422 µM in the assay on SF-539 CNS. For the same compound, the GI50 is 1.14 µM in the assay with NCI-H522 lung, 0.501 µM with SF-268 CNS and 0.659 µM with OVCAR-4 ovarian. Moreover, the TGI was > 100 µM in the assay on HCT-15 colon; 2.92 µM with HL-60(TB) leukemia; 20.9 µM in the assay with K-562 leukemia; 11.7 µM in the assay on HCT-116 colon; 25.2 µM in the assay on OVCAR-5 ovarian; 5.78 µM in the assay with SF-539 CNS. Moreover, the TGI turned out to be 6.25 µM with NCI-H522 lung, 7.61 µM with SF-268 CNS and 15.8 µM in the assay on OVCAR-4 ovarian.
Consider `COc1cc(C2c3cc4c(cc3[C@@H](Nc3ccc(C(=O)O)cc3)C3COC(=O)[C@H]23)OCO4)cc(OC)c1O` (some centres undefined), for which the TGI in the assay with EKVX NSCLC was > 100 µM; in the assay on HCT-15 colon it was 32.8 µM and > 17.5 µM; in the assay on HL-60(TB) leukemia it was 22.8 µM and 16.7 µM; with K-562 leukemia it was > 100 µM; with HCT-116 colon, 43.9 µM and > 17.5 µM; with OVCAR-5 ovarian it was > 100 µM. For the same compound, the TGI in the assay with SF-539 CNS is 32.7 µM and > 17.5 µM; in the assay with SF-268 CNS, 69.1 µM and > 17.5 µM; in the assay on OVCAR-4 ovarian, > 100 µM. The GI50 is 14.5 µM and 6.68 µM in the assay with K-562 leukemia; 48.3 µM and > 17.5 µM in the assay with OVCAR-5 ovarian.
As to `Nc1ccc(C(=O)N/C(=C\C=C\c2ccco2)c2nc3[nH]c(=S)[nH]c(=O)c3[nH]2)cc1`, the TGI with EKVX NSCLC, in the assay on HCT-15 colon, in the assay with K-562 leukemia, with OVCAR-5 ovarian, in the assay with SF-539 CNS and in the assay on NCI-H522 lung was > 100 µM in each case. Also, the TGI in the assay with SF-268 CNS and in the assay on OVCAR-4 ovarian was > 100 µM throughout.
As for `Cc1cc2nc3c(=O)n(C)c(=O)nc-3n(-c3ccc(Cl)cc3)c2cc1C`, the TGI is 43.9 µM with EKVX NSCLC; 21.9 µM with HCT-15 colon; 24.3 µM with HL-60(TB) leukemia; 34.7 µM with K-562 leukemia; 33.6 µM with HCT-116 colon; 32.6 µM in the assay on OVCAR-5 ovarian. The TGI is 25.4 µM in the assay with SF-539 CNS, 36.7 µM in the assay with SF-268 CNS and 19.8 µM in the assay with OVCAR-4 ovarian.
Consider `O=C(Nc1ccccc1)c1ccc(Cl)c([N+](=O)[O-])c1`, for which the TGI in the assay on EKVX NSCLC is > 100 µM; with HCT-15 colon, 46.5 µM; with K-562 leukemia, 14.3 µM; in the assay with SF-539 CNS it was 60.5 µM; in the assay on NCI-H522 lung, 32 µM.
Regarding `CCOC(=O)CCC(=O)C1c2cccc(O)c2C(=O)c2c(O)cccc21`, the TGI is 0.657 µM with HL-60(TB) leukemia; > 100 µM in the assay with K-562 leukemia; 2.6 µM in the assay on HCT-116 colon; 3.38 µM in the assay on OVCAR-5 ovarian; 1.63 µM in the assay on SF-539 CNS; 1.46 µM in the assay with NCI-H522 lung. The TGI with OVCAR-4 ovarian amounted to 1.86 µM.
As for `O=C1C=C(c2c(O)ccc3ccccc23)c2ccccc2C1=O`, the TGI was 11.9 µM in the assay on EKVX NSCLC; 13.1 µM with HCT-15 colon; 15.3 µM in the assay with HL-60(TB) leukemia; 23.4 µM in the assay on K-562 leukemia; 8.06 µM with HCT-116 colon; 25 µM with OVCAR-5 ovarian. Moreover, the TGI with SF-539 CNS worked out at 4.36 µM; in the assay on SF-268 CNS, 17.2 µM; in the assay with OVCAR-4 ovarian it was 3.79 µM.
In the case of `CC1=CSC2=NC(c3ccc(Cl)c(Cl)c3)=CC(c3ccc(Cl)cc3)N12` (centres undefined), the GI50 with HCT-15 colon, in the assay with HL-60(TB) leukemia, in the assay on K-562 leukemia, in the assay on HCT-116 colon, with OVCAR-5 ovarian and with SF-539 CNS was > 100 µM throughout. Further, the GI50 with NCI-H522 lung, with SF-268 CNS and with OVCAR-4 ovarian was > 100 µM throughout. Further, the TGI in the assay on HCT-15 colon, with HL-60(TB) leukemia, with K-562 leukemia, in the assay on HCT-116 colon, in the assay on OVCAR-5 ovarian and in the assay on SF-539 CNS was > 100 µM throughout. The TGI with NCI-H522 lung, in the assay on SF-268 CNS and in the assay on OVCAR-4 ovarian was > 100 µM in each case.
As for `N#CC(C#N)=C(N)/C(C#N)=C\c1ccnc2ccccc12`, the TGI in the assay on HL-60(TB) leukemia is 4.69 µM; in the assay with K-562 leukemia, 26.1 µM; in the assay with HCT-116 colon, 12.4 µM; in the assay with OVCAR-5 ovarian, > 100 µM; in the assay on SF-539 CNS, 31.1 µM; in the assay on NCI-H522 lung, 89.1 µM. In addition, the TGI in the assay on SF-268 CNS is 66.3 µM; in the assay with OVCAR-4 ovarian, > 100 µM.
On to `Cc1nc2ccc(C(F)(F)F)cc2nc1Nc1ccc(Cl)c(Cl)c1`, for which the TGI with HCT-15 colon worked out at 18.5 µM; in the assay on HL-60(TB) leukemia, 24 µM; with HCT-116 colon it was 22.2 µM; in the assay on OVCAR-5 ovarian, 28.7 µM; with SF-539 CNS it was 27.5 µM; in the assay with SF-268 CNS it was 37.5 µM.
On to `O=c1cc(-c2ccccc2)[nH]c2cc(Cl)cc(Cl)c12`, for which the TGI in the assay on HCT-15 colon, in the assay with HL-60(TB) leukemia, in the assay with K-562 leukemia, in the assay with HCT-116 colon, in the assay on OVCAR-5 ovarian and with SF-539 CNS was > 100 µM in each case. Besides, the TGI with NCI-H522 lung was > 100 µM; in the assay with SF-268 CNS it was > 100 µM; in the assay with OVCAR-4 ovarian, 68.6 µM.

Source of the values: PubChem BioAssay (NCI).
